16 compounds from paper PMC6271513, “Design and Synthesis of Chalcone Derivatives as Inhibitors of the Ferredoxin — Ferredoxin-NADP^+ Reductase Interaction of Plasmodium falciparum: Pursuing New Antimalarial Agents” (Molecules, 2014) can be followed below.

This assay deals with T1, PfFd-PfFNR (Plasmodium falciparum, UniProt C6KT68+Q8IED5).
T1 construct: gene FNR; recombinant PfFNR (E. coli TG1 pTrc99A) and PfFd (E. coli JM105 pTrc99A), purified; PfFd 2Fe-2S, PfFNR flavoprotein
Description: cytochrome c reduction at […] nm, FNR-Fd electron transfer. The assay is classed as biochemical.

A word on the inhibition: it is the relative decrease from the control value, in per cent.

T1 sequence (C6KT68 56-371): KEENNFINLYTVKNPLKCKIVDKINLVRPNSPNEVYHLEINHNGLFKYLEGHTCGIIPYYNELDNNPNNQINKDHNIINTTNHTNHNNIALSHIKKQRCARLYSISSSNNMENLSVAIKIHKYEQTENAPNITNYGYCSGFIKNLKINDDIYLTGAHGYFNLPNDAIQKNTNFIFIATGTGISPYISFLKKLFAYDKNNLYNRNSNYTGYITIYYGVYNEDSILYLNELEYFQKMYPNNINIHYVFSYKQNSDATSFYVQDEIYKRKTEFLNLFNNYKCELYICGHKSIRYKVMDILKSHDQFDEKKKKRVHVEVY
T1 sequence (Q8IED5 97-194 limits assumed): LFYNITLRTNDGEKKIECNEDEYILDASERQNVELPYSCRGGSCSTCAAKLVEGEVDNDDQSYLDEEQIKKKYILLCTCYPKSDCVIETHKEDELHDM

For the compound `COc1ccccc1/C=C/C(=O)c1ccc(N)cc1` [compound 1, (E)-1-(4-Aminophenyl)-3-(2-methoxyphenyl)prop-2-en-1-one], the inhibition at 100 µM stood at 15.8%.

Regarding `COc1cccc(/C=C/C(=O)c2ccc(N)cc2)c1` [compound 2, (E)-1-(4-Aminophenyl)-3-(3-methoxyphenyl)prop-2-en-1-one], the inhibition at 100 µM was 22.4%.

For the compound `COc1cccc(/C=C/C(=O)c2ccc(N)cc2)c1OC` [compound 4, (E)-1-(4-Aminophenyl)-3-(2,3-dimethoxyphenyl)prop-2-en-1-one], the inhibition at 100 µM is 31.6%.

Consider `COc1ccc(/C=C/C(=O)c2ccc(N)cc2)c(OC)c1` [compound 5, (E)-1-(4-Aminophenyl)-3-(2,4-dimethoxyphenyl)prop-2-en-1-one], for which the inhibition at 100 µM is 38.2%.

For `COc1ccc(OC)c(/C=C/C(=O)c2ccc(N)cc2)c1` [compound 6, (E)-1-(4-Aminophenyl)-3-(2,5-dimethoxyphenyl)prop-2-en-1-one], the inhibition at 100 µM is -14.1%.

Turning to `Nc1ccc(C(=O)/C=C/c2ccccc2)cc1` [compound 7, (E)-1-(4-Aminophenyl)-3-phenylprop-2-en-1-one], the inhibition at 100 µM worked out at 10.9%.

As for `COc1ccccc1/C=C/C(=O)c1ccccc1` [compound 8, (E)-3-(2-Methoxyphenyl)-1-phenylprop-2-en-1-one], the inhibition at 100 µM is -10.3%.

Regarding `COc1cccc(/C=C/C(=O)c2ccccc2)c1` [compound 9, (E)-3-(3-Methoxyphenyl)-1-phenylprop-2-en-1-one], the inhibition at 100 µM turned out to be 0%.

Regarding `COc1ccc(/C=C/C(=O)c2ccccc2)cc1` [compound 10, (E)-3-(4-Methoxyphenyl)-1-phenylprop-2-en-1-one], the inhibition at 100 µM is 4.69%.

Take `COc1cccc(/C=C/C(=O)c2ccccc2)c1OC` [compound 11, (E)-3-(2,3-Dimethoxyphenyl)-1-phenylprop-2-en-1-one]: the inhibition at 100 µM was -5.88%.

`COc1ccc(/C=C/C(=O)c2ccccc2)c(OC)c1` [compound 12, (E)-3-(2,4-Dimethoxyphenyl)-1-phenylprop-2-en-1-one]: the inhibition at 100 µM is 6.25%.

With `COc1ccc(OC)c(/C=C/C(=O)c2ccccc2)c1` [compound 13, (E)-3-(2,5-Dimethoxyphenyl)-1-phenylprop-2-en-1-one], the inhibition at 100 µM stood at 5.88%.

On to `COc1ccc(/C=C/C(=O)c2ccc(Br)cc2)cc1` [compound 14, (E)-1-(4-Bromophenyl)-3-(4-methoxyphenyl)prop-2-en-1-one], for which the inhibition at 100 µM is 7.35%.

With `COc1ccc(/C=C/C(=O)c2ccc(Br)cc2)c(OC)c1` [compound 15, (E)-1-(4-Bromophenyl)-3-(2,4-dimethoxyphenyl)prop-2-en-1-one], the inhibition at 100 µM was determined as 26.5%.

For `COc1ccc(OC)c(/C=C/C(=O)c2ccc(Br)cc2)c1` [compound 16, (E)-1-(4-Bromophenyl)-3-(2,5-dimethoxyphenyl)prop-2-en-1-one], the inhibition at 100 µM turned out to be 11.8%.

As to `O=C(/C=C/c1ccccc1)c1ccccc1` [compound 17, (E)-1,3-diphenyl-2-propen-1-one], the inhibition at 100 µM came out at 22.1%.
